{"source": "patent US20220313772A1", "about": "“Method of Treating a Child with Central Precocious Puberty using an Extended Release Composition” (Tolmar International Limited, priority 2019, published 2022)", "origin": "cited, not measured here", "conditions": "in vivo", "data": [{"smiles": "CCNC(=O)[C@@H]1CCCN1C(=O)[C@H](CCCNC(=N)N)NC(=O)[C@H](CC(C)C)NC(=O)[C@@H](CC(C)C)NC(=O)[C@H](Cc1ccc(O)cc1)NC(=O)[C@H](CO)NC(=O)[C@H](Cc1c[nH]c2ccccc12)NC(=O)[C@H](Cc1c[nH]cn1)NC(=O)[C@@H]1CCC(=O)N1", "note": "[Leuprolide acetate, leuprolide acetate]", "values": [{"measurement": "adverse effects at high dose", "result": "no adverse effects differing from those observed with a 1 mg/day dose"}]}]}
